From US11040028B2, “Penicinotam derivative, preparation method and use thereof” (OCEAN UNIVERSITY OF CHINA, priority 2017, dated 2021)

Columns and labels:
Assay type in all cases: cell-based
BHK-21 cells = assay: Anti-fibrosis activity test: inhibition of BHK-21 cell proliferation (CCK-8); settings: Mesocricetus auratus, BHK-21, 48 h
In short: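 Proliferation inhibition was read as CCK-8 absorbance at 450 nm (2-hour development) relative to untreated blank, with IC50 fitted from the curve. Before that, adhered cells (2×10^4 cells/mL, 24 hours) had 48 hours' treatment at several concentrations, in triplicate, at 37° C/5% CO2; pirfenidone was the reference.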

[1] = test system: human dermal fibroblasts CCC-ESF-1; assay: Anti-fibrosis activity test: inhibition of proliferation of human dermal fibroblasts CCC-ESF-1 (CCK-8); settings: Fibroblast
In short: (§1)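 Exponentially growing cells, 2×10^4 cells/mL, attached 24 h. Dosed 48 h across concentrations (n=3). CCK-8 2 h → A450; IR vs blank; IC50.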

[2] = test system: human lung fibroblasts HFL1; assay: Anti-fibrosis activity test: inhibition of proliferation of human lung fibroblasts HFL1 (CCK-8); settings: Homo sapiens, HFL1, 48 h
In short: as §1

[3] = test system: cardiac fibroblast RAT-iCell-C002; assay: Anti-fibrosis activity test: inhibition of proliferation of cardiac fibroblast RAT-iCell-C002 (CCK-8); settings: Cardiac fibroblast, 48 h
In short: as §1

[4] = test system: human embryonic lung fibroblast IMR-90; assay: Anti-fibrosis activity test: inhibition of proliferation of human embryonic lung fibroblast IMR-90 (CCK-8)
In short: as §1

NF-κB = assay: Immunological activity test: inhibition of NF-κB activity; settings: initial concentration of 30 μM; a/b isomers given as first/second symbol; read-out: IC50 (μM), inhibitory activity against NF-κB
In short: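 IC50 values come from further analysis of the data after an initial test at a single 30 μM concentration. Parthenolide served as the reference inhibitor.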

[5] = test system: human hepatic stellate cells LX-2; assay: Anti-fibrosis activity test: inhibition of proliferation of human hepatic stellate cells LX-2 (CCK-8); settings: Homo sapiens, 48 h
In short: as §1

[6] = test system: human fibrosarcoma cells HT-1080; assay: Anti-fibrosis activity test: inhibition of proliferation of human fibrosarcoma cells HT-1080 (CCK-8); settings: Homo sapiens, HT-1080, 48 h
In short: as §1

[7] = test system: mouse macrophages (RAW264.7); assay: Lipopolysaccharide-induced NO secretion in macrophages (Griess); settings: Mus musculus, RAW264.7, 24 h, RAW264.7, LPS 1 μg/ml, a/b isomers given as first/second symbol, read-out: IC50 (μM), inhibition of lipopolysaccharide-induced NO secretion in macrophages
In short: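 RAW264.7 cells in DMEM with 10% FBS were treated with test compounds at several concentrations, then stimulated with LPS (1 μg/ml) for 24 hours. Nitrite in the supernatant was measured by Griess reaction at 548 nm, and percent inhibition was calculated against blank-medium controls.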

[8] = Homo sapiens, CCC-ESF-1 cells, 48 h, CCK-8
[9] = Homo sapiens, IMR-90 cells, 48 h, CCK-8
[10] = CCK-8, 48 hours after administration
[11] = human dermal fibroblasts CCC-ESF-1, CCK-8, 48 hours
[12] = human lung fibroblasts HFL1, CCK-8, 48 hours
[13] = cardiac fibroblast RAT-iCell-C002, CCK-8, 48 hours
[14] = human embryonic lung fibroblast IMR-90, CCK-8, 48 hours
[15] = human hepatic stellate cells LX-2, CCK-8, 48 hours
[16] = human fibrosarcoma cells HT-1080, CCK-8, 48 hours

Row | SMILES | IC50 (NF-κB) | IC50 ([6]; HT-1080 cells, 48 h, CCK-8) | IC50 [7] | IC50 [6, 16] | IC50 (BHK-21 cells; 48 h, CCK-8) | IC50 [1, 8] | IC50 ([2]; HFL1 cells, 48 h, CCK-8) | IC50 ([3]; RAT-iCell-C002 cells, CCK-8) | IC50 [4, 9] | IC50 ([5]; LX-2, 48 h, LX-2 cells, CCK-8) | IC50 (BHK-21 cells; [10]) | IC50 [1, 11] | IC50 [2, 12] | IC50 [3, 13] | IC50 [4, 14] | IC50 [5, 15]
1 | Cc1ccn2c1-c1c(nc3ccccc3c1O)C2=O [Compound 797b, 11-hydroxy-1-methyl-5H-pyrrolizino[2,1-b]quinolin-5-one] | 0.1 to 1 µM | 0.05 to 5 mM | 1 to 10 µM |  | 0.05 to 5 mM | 0.05 to 5 mM | 0.05 to 5 mM | 0.05 to 5 mM | 0.05 to 5 mM | 0.05 to 5 mM |  |  |  |  |  | 
2 | O=C1c2c(nc3ccccc3c2OCCCN2CCOCC2)-c2cccn21 [Compound 663b, 9-(3-morpholinopropoxy)-10H-pyrrolizino[1,2-b]quinolin-10-one] | 1 to 10 µM |  | 0.1 to 1 µM | 0.05 to 5 mM |  |  |  |  |  |  | 0.05 to 5 mM | 0.05 to 5 mM | 0.05 to 5 mM | 0.05 to 5 mM | 0.05 to 5 mM | 0.05 to 5 mM
3 | O=C1c2c(nc3ccccc3c2OCc2cccc(I)c2)-c2cccn21 [Compound 608b, 9-((3-iodobenzyl)oxy)-10H-pyrrolizino[1,2-b]quinolin-10-one] | 1 to 10 µM |  | 1 to 10 µM | 0.05 to 5 mM |  |  |  |  |  |  | 0.05 to 5 mM | 0.05 to 5 mM | 0.05 to 5 mM | 0.05 to 5 mM | 0.05 to 5 mM | 0.05 to 5 mM
4 | COc1cccc2[nH]c3c(c(=O)c12)C(=O)n1cccc1-3 [Compound 473a, 8-Methoxy-9H-pyrrolizino[1,2-b]quinoline-9,10(4H)-dione] | 1 to 10 µM |  | 1 to 10 µM | 0.05 to 5 mM |  |  |  |  |  |  | 0.05 to 5 mM | 0.05 to 5 mM | 0.05 to 5 mM | < 0.05 mM | 0.05 to 5 mM | 0.05 to 5 mM
5 | COc1cccc2c(O)c3c(nc12)-c1cccn1C3=O [Compound 446b, 9-hydroxy-5-methoxy-10H-pyrrolizino[1,2-b]quinolin-10-one] | 0.001 to 0.1 µM |  | 1 to 10 µM | 0.05 to 5 mM |  |  |  |  |  |  | 0.05 to 5 mM | 0.05 to 5 mM | 0.05 to 5 mM | 0.05 to 5 mM | 0.05 to 5 mM | 0.05 to 5 mM
6 | O=C1c2c(nc3ccccc3c2OCc2cc(C(F)(F)F)cc(C(F)(F)F)c2)-c2cccn21 [Compound 607b, 9-((3,5-bis(trifluoromethyl)benzyl)oxy)-10H-pyrrolizino[1,2-b]quinolin-10-one] | 1 to 10 µM |  | 1 to 10 µM | 0.05 to 5 mM |  |  |  |  |  |  | 0.05 to 5 mM | 0.05 to 5 mM | 0.05 to 5 mM | 0.05 to 5 mM | 0.05 to 5 mM | 0.05 to 5 mM
7 | Cc1cccc2nc3c(c(O)c12)-c1cccn1C3=O [Compound 776b, 11-hydroxy-10-methyl-5H-pyrrolizino[2,1-b]quinolin-5-one] | 0.1 to 1 µM | 0.05 to 5 mM | 1 to 10 µM |  | 0.05 to 5 mM | 0.05 to 5 mM | 0.05 to 5 mM | 0.05 to 5 mM | 0.05 to 5 mM | 0.05 to 5 mM |  |  |  |  |  | 
8 | O=C1c2c(nc3ccccc3c2OCc2ccc([N+](=O)[O-])cc2)-c2cccn21 [Compound 593b, 9-((4-nitrobenzyl)oxy)-10H-pyrrolizino[1,2-b]quinolin-10-one] | 1 to 10 µM |  | 1 to 10 µM | 0.05 to 5 mM |  |  |  |  |  |  | 0.05 to 5 mM | 0.05 to 5 mM | 0.05 to 5 mM | 0.05 to 5 mM | 0.05 to 5 mM | 0.05 to 5 mM
9 | N#Cc1ccccc1-c1ccc(Cn2c3c(c(=O)c4ccccc42)C(=O)n2cccc2-3)cc1 [Compound 648a, 4′-((9,10-Dioxo-9H-pyrrolizino[1,2-b]quinolin-4(10H)-yl)methyl)-[1,1′-biphenyl]-2-carbonitrile] | 1 to 10 µM |  | 10 to 50 µM | 0.05 to 5 mM |  |  |  |  |  |  | 0.05 to 5 mM | 0.05 to 5 mM | 0.05 to 5 mM | 0.05 to 5 mM | 0.05 to 5 mM | 0.05 to 5 mM
10 | N#Cc1ccc2nc3c(c(O)c2c1)C(=O)n1cccc1-3 [Compound 222b, 9-hydroxy-10-oxo-10H-pyrrolizino[1,2-b]quinoline-7-carbonitrile] | 1 to 10 µM |  | 1 to 10 µM | 0.05 to 5 mM |  |  |  |  |  |  | 0.05 to 5 mM | 0.05 to 5 mM | 0.05 to 5 mM | 0.05 to 5 mM | 0.05 to 5 mM | 0.05 to 5 mM
11 | O=C1c2c(n(Cc3ccc(Br)cc3F)c3ccccc3c2=O)-c2cccn21 [Compound 606a, 4-(4-Bromo-2-fluorobenzyl)-9H-pyrrolizino[1,2-b]quinoline-9,10(4H)-dione] | 0.1 to 1 µM |  | 1 to 10 µM | < 0.05 mM |  |  |  |  |  |  | < 0.05 mM | 0.05 to 5 mM | 0.05 to 5 mM | 0.05 to 5 mM | 0.05 to 5 mM | 0.05 to 5 mM
12 | O=C1c2c(n(Cc3cc(F)c(F)c(F)c3F)c3ccccc3c2=O)-c2cccn21 [Compound 587a, 4-(2,3,4,5-Tetrafluorobenzyl)-9H-pyrrolizino[1,2-b]quinoline-9,10(4H)-dione] | 1 to 10 µM |  | 1 to 10 µM | 0.05 to 5 mM |  |  |  |  |  |  | 0.05 to 5 mM | 0.05 to 5 mM | 0.05 to 5 mM | 0.05 to 5 mM | 0.05 to 5 mM | 0.05 to 5 mM

Further lines, with some results ahead:

Row | IC50 (NF-κB) | IC50 ([6]; HT-1080 cells, 48 h, CCK-8) | IC50 [7] | IC50 [6, 16] | SMILES | IC50 (BHK-21 cells; 48 h, CCK-8) | IC50 [1, 8] | IC50 ([2]; HFL1 cells, 48 h, CCK-8) | IC50 ([3]; RAT-iCell-C002 cells, CCK-8) | IC50 [4, 9] | IC50 ([5]; LX-2, 48 h, LX-2 cells, CCK-8) | IC50 (BHK-21 cells; [10]) | IC50 [1, 11] | IC50 [2, 12] | IC50 [3, 13] | IC50 [4, 14] | IC50 [5, 15]
13 | 0.1 to 1 µM | 0.05 to 5 mM | 1 to 10 µM |  | Cc1cc(C)c2c(=O)c3c([nH]c2c1)-c1cccn1C3=O [Compound 768a, 6,8-Dimethyl-9H-pyrrolizino[1,2-b]quinoline-9,10(4H)-dione] | 0.05 to 5 mM | 0.05 to 5 mM | 0.05 to 5 mM | 0.05 to 5 mM | 0.05 to 5 mM | 0.05 to 5 mM |  |  |  |  |  | 
14 | 1 to 10 µM |  | 1 to 10 µM | 0.05 to 5 mM | O=C1c2c(nc3ccccc3c2OCc2ccc(F)c(Cl)c2)-c2cccn21 [Compound 603b, 9-((3-chloro-4-fluorobenzyl)oxy)-10H-pyrrolizino[1,2-b]quinolin-10-one] |  |  |  |  |  |  | 0.05 to 5 mM | 0.05 to 5 mM | 0.05 to 5 mM | 0.05 to 5 mM | 0.05 to 5 mM | 0.05 to 5 mM
15 | 1 to 10 µM | 0.05 to 5 mM | 1 to 10 µM |  | Cc1cc(C)c2c(O)c3c(nc2c1)-c1cccn1C3=O [Compound 768b, 9-hydroxy-6,8-dimethyl-10H-pyrrolizino[1,2-b]quinolin-10-one] | 0.05 to 5 mM | 0.05 to 5 mM | 0.05 to 5 mM | 0.05 to 5 mM | 0.05 to 5 mM | 0.05 to 5 mM |  |  |  |  |  | 
16 | 1 to 10 µM |  | 10 to 50 µM | 0.05 to 5 mM | O=C1c2c(n(Cc3ccc(Cl)c(Cl)c3)c3ccccc3c2=O)-c2cccn21 [Compound 613a, 4-(3,4-Dichlorobenzyl)-9H-pyrrolizino[1,2-b]quinoline-9,10(4H)-dione] |  |  |  |  |  |  | < 0.05 mM | 0.05 to 5 mM | 0.05 to 5 mM | 0.05 to 5 mM | 0.05 to 5 mM | 0.05 to 5 mM
17 | 1 to 10 µM |  | 1 to 10 µM | 0.05 to 5 mM | O=C1c2c(n(CCCO)c3ccccc3c2=O)-c2cccn21 [Compound 16a, 4-(3-Hydroxypropyl)-9H-pyrrolizino[1,2-b]quinoline-9,10(4H)-dione] |  |  |  |  |  |  | 0.05 to 5 mM | 0.05 to 5 mM | 0.05 to 5 mM | 0.05 to 5 mM | 0.05 to 5 mM | 0.05 to 5 mM
18 | 0.1 to 1 µM | 0.05 to 5 mM | 1 to 10 µM |  | Cc1cccc2c(=O)c3c([nH]c12)-c1cccn1C3=O [Compound 732a, 5-Methyl-9H-pyrrolizino[1,2-b]quinoline-9,10(4H)-dione] | < 0.05 mM | < 0.05 mM | 0.05 to 5 mM | 0.05 to 5 mM | 0.05 to 5 mM | 0.05 to 5 mM |  |  |  |  |  | 
19 | 0.1 to 1 µM |  | 1 to 10 µM | 0.05 to 5 mM | COc1cccc2c(=O)c3c([nH]c12)-c1cccn1C3=O [Compound 446a, 5-Methoxy-9H-pyrrolizino[1,2-b]quinoline-9,10(4H)-dione] |  |  |  |  |  |  | 0.05 to 5 mM | 0.05 to 5 mM | 0.05 to 5 mM | 0.05 to 5 mM | 0.05 to 5 mM | 0.05 to 5 mM
